Experimental data: ChEMBL document CHEMBL1629634, “Postantibiotic effect of tigecycline against 14 gram-positive organisms” (Antimicrob Agents Chemother, 2009)
In brackets after ≈: the same amount, converted by molar mass.

What was measured:
Format in all cases: functional
Klebsiella pneumoniae [1] = assay: Antibacterial activity against Klebsiella pneumoniae assessed as post antibiotic effect at 2 times MIC concentration incubated for 1 hr measured after 1:1000 dilution by viable plate count method
Acinetobacter baumannii [2] = assay: Antibacterial activity against multidrug-resistant Acinetobacter baumannii producing OXA-24 and OXA-51 beta-lactamases assessed as post-antibiotic sub-MIC effect at 0.2 times MIC concentration pretreated with 2 times MIC concentration for 1 hr followed by 1:1000 dilution by viable plate count method
Escherichia coli [3] = assay: Antibacterial activity against Escherichia coli assessed as post-antibiotic sub-MIC effect at 0.4 times MIC concentration pretreated with 6 times MIC concentration for 1 hr followed by 1:1000 dilution by viable plate count method
Acinetobacter baumannii [4] = assay: Antibacterial activity against Acinetobacter baumannii assessed as post-antibiotic sub-MIC effect at 0.2 times MIC concentration pretreated with 6 times MIC concentration for 1 hr followed by 1:1000 dilution by viable plate count method
Enterococcus faecalis [5] = assay: Antibacterial activity against vancomycin-sensitive Enterococcus faecalis assessed as sub-MIC effect at 0.2 times MIC concentration incubated for 1 hr by viable plate count method
Haemophilus influenzae [6] = assay: Antibacterial activity against amoxicillin, clavulanate-resistant Haemophilus influenzae expressing beta-lactamase assessed as post antibiotic effect at 6 times MIC concentration incubated for 1 hr measured after 1:1000 dilution by viable plate count method
Haemophilus influenzae [7] = assay: Antibacterial activity against beta-lactamase deficient and ampicillin-resistant Haemophilus influenzae assessed as sub-MIC effect at 0.4 times MIC concentration incubated for 1 hr by viable plate count method
Staphylococcus aureus [8] = assay: Antibacterial activity against vancomycin-sensitive methicillin-resistant Staphylococcus aureus assessed as post-antibiotic sub-MIC effect at 0.2 times MIC concentration pretreated with 6 times MIC concentration for 1 hr followed by 1:1000 dilution by viable plate count method
Enterococcus faecalis [9] = assay: Antibacterial activity against vancomycin-sensitive Enterococcus faecalis assessed as post-antibiotic sub-MIC effect at 0.4 times MIC concentration pretreated with 10 times MIC concentration for 1 hr followed by 1:1000 dilution by viable plate count method
Enterococcus faecalis [10] = assay: Antibacterial activity against vancomycin-sensitive Enterococcus faecalis assessed as post-antibiotic sub-MIC effect at 0.2 times MIC concentration pretreated with 10 times MIC concentration for 1 hr followed by 1:1000 dilution by viable plate count method
Escherichia coli [11] = assay: Antibacterial activity against Escherichia coli assessed as post-antibiotic sub-MIC effect at 0.2 times MIC concentration pretreated with 6 times MIC concentration for 1 hr followed by 1:1000 dilution by viable plate count method
Acinetobacter baumannii [12] = assay: Antibacterial activity against multidrug-resistant Acinetobacter baumannii producing OXA-24 and OXA-51 beta-lactamases assessed as post-antibiotic sub-MIC effect at 0.3 times MIC concentration pretreated with 10 times MIC concentration for 1 hr followed by 1:1000 dilution by viable plate count method
Streptococcus pneumoniae [13] = assay: Antibacterial activity against penicillin-susceptible Streptococcus pneumoniae assessed as post-antibiotic sub-MIC effect at 0.3 times MIC concentration pretreated with 10 times MIC concentration for 1 hr followed by 1:1000 dilution by viable plate count method
Streptococcus pneumoniae [14] = assay: Antibacterial activity against penicillin-intermediate Streptococcus pneumoniae assessed as post-antibiotic sub-MIC effect at 0.2 times MIC concentration pretreated with 10 times MIC concentration for 1 hr followed by 1:1000 dilution by viable plate count method
Acinetobacter baumannii [15] = assay: Antibacterial activity against Acinetobacter baumannii by macrodilution method
Acinetobacter baumannii [16] = assay: Antibacterial activity against Acinetobacter baumannii assessed as post-antibiotic sub-MIC effect at 0.3 times MIC concentration pretreated with 6 times MIC concentration for 1 hr followed by 1:1000 dilution by viable plate count method
Klebsiella pneumoniae [17] = assay: Antibacterial activity against Klebsiella pneumoniae assessed as post antibiotic effect
Acinetobacter baumannii [18] = assay: Antibacterial activity against multidrug-resistant Acinetobacter baumannii producing OXA-24 and OXA-51 beta-lactamases assessed as post antibiotic effect at 2 times MIC concentration incubated for 1 hr measured after 1:1000 dilution by viable plate count method
Streptococcus pneumoniae [19] = assay: Antibacterial activity against penicillin-susceptible Streptococcus pneumoniae assessed as post-antibiotic sub-MIC effect at 0.4 times MIC concentration pretreated with 10 times MIC concentration for 1 hr followed by 1:1000 dilution by viable plate count method
Acinetobacter baumannii [20] = assay: Antibacterial activity against multidrug-resistant Acinetobacter baumannii producing OXA-24 and OXA-51 beta-lactamases assessed as post antibiotic effect at 10 times MIC concentration incubated for 1 hr measured after 1:1000 dilution by viable plate count method
Haemophilus influenzae [21] = assay: Antibacterial activity against amoxicillin, clavulanate-resistant Haemophilus influenzae expressing beta-lactamase assessed as post antibiotic effect at 10 times MIC concentration incubated for 1 hr measured after 1:1000 dilution by viable plate count method
Haemophilus influenzae [22] = assay: Antibacterial activity against amoxicillin, clavulanate-resistant Haemophilus influenzae expressing beta-lactamase assessed as sub-MIC effect at 0.3 times MIC concentration incubated for 1 hr by viable plate count method
Klebsiella pneumoniae [23] = assay: Antibacterial activity against Klebsiella pneumoniae assessed as post-antibiotic sub-MIC effect at 0.2 times MIC concentration pretreated with 10 times MIC concentration for 1 hr followed by 1:1000 dilution by viable plate count method
Enterobacter cloacae = assay: Antibacterial activity against Enterobacter cloacae by macrodilution method
Enterococcus faecalis [24] = assay: Antibacterial activity against vancomycin-resistant Enterococcus faecalis assessed as post-antibiotic sub-MIC effect at 0.3 times MIC concentration pretreated with 10 times MIC concentration for 1 hr followed by 1:1000 dilution by viable plate count method
Streptococcus pneumoniae [25] = assay: Antibacterial activity against penicillin-resistant Streptococcus pneumoniae assessed as sub-MIC effect at 0.4 times MIC concentration incubated for 1 hr by viable plate count method
Haemophilus influenzae [26] = assay: Antibacterial activity against beta-lactamase deficient and ampicillin-resistant Haemophilus influenzae assessed as post antibiotic effect at 10 times MIC concentration incubated for 1 hr measured after 1:1000 dilution by viable plate count method
Staphylococcus aureus [27] = assay: Antibacterial activity against vancomycin-intermediate methicillin-resistant Staphylococcus aureus assessed as post-antibiotic sub-MIC effect at 0.4 times MIC concentration pretreated with 10 times MIC concentration for 1 hr followed by 1:1000 dilution by viable plate count method
Acinetobacter baumannii [28] = assay: Antibacterial activity against Acinetobacter baumannii assessed as post-antibiotic sub-MIC effect at 0.2 times MIC concentration pretreated with 10 times MIC concentration for 1 hr followed by 1:1000 dilution by viable plate count method
Klebsiella pneumoniae [29] = assay: Antibacterial activity against Klebsiella pneumoniae assessed as post-antibiotic sub-MIC effect at 0.4 times MIC concentration pretreated with 10 times MIC concentration for 1 hr followed by 1:1000 dilution by viable plate count method
Enterococcus faecalis [30] = assay: Antibacterial activity against vancomycin-resistant Enterococcus faecalis assessed as post-antibiotic sub-MIC effect at 0.4 times MIC concentration pretreated with 10 times MIC concentration for 1 hr followed by 1:1000 dilution by viable plate count method
Haemophilus influenzae [31] = assay: Antibacterial activity against amoxicillin, clavulanate-resistant Haemophilus influenzae expressing beta-lactamase assessed as post-antibiotic sub-MIC effect at 0.4 times MIC concentration pretreated with 10 times MIC concentration for 1 hr followed by 1:1000 dilution by viable plate count method

## CN(C)c1cc(NC(=O)CNC(C)(C)C)c(O)c2c1C[C@H]1C[C@H]3[C@H](N(C)C)C(O)=C(C(N)=O)C(=O)[C@@]3(O)C(O)=C1C2=O [TIGECYCLINE]
Klebsiella pneumoniae [1]
  PAE: 1.7 h
Acinetobacter baumannii [2]
  PAE: 1.2 h
Escherichia coli [3]
  PAE: 3.3 h
Acinetobacter baumannii [4]
  PAE: 5.2 h
Enterococcus faecalis [5]
  PAE: 0 h
Haemophilus influenzae [6]
  PAE: 3.9 h
Haemophilus influenzae [7]
  PAE: 0.8 h
Staphylococcus aureus [8]
  PAE: 3.7 h
Enterococcus faecalis [9]
  PAE: 8.2 h
Enterococcus faecalis [10]
  PAE: 5.3 h
Escherichia coli [11]
  PAE: 1.9 h
Acinetobacter baumannii [12]
  PAE: 2.2 h
Streptococcus pneumoniae [13]
  PAE: 8.8 h
Streptococcus pneumoniae [14]
  PAE: 6.1 h
Acinetobacter baumannii [15]
  MIC: 0.12 µg/mL (≈ 0.205 µM)
Acinetobacter baumannii [16]
  PAE: 10.7 h
Klebsiella pneumoniae [17]
  PAE: 2 h
Acinetobacter baumannii [18]
  PAE: 0.7 h
Streptococcus pneumoniae [19]
  PAE: 9 h
Acinetobacter baumannii [20]
  PAE: 1.3 h
Haemophilus influenzae [21]
  PAE: 3.7 h
Haemophilus influenzae [22]
  PAE: 0.8 h
Klebsiella pneumoniae [23]
  PAE: 1.9 h
Enterobacter cloacae
  MIC: 0.5 µg/mL (≈ 0.854 µM)
Enterococcus faecalis [24]
  PAE: 10.5 h
Streptococcus pneumoniae [25]
  PAE: 0.7 h
Haemophilus influenzae [26]
  PAE: 1.1 h
Staphylococcus aureus [27]
  PAE: 10 h
Acinetobacter baumannii [28]
  PAE: 6.7 h
Klebsiella pneumoniae [29]
  PAE: 2.3 h
Enterococcus faecalis [30]
  PAE: 11 h
Haemophilus influenzae [31]
  PAE: 7.9 h
